Patent US9198915B2, “Methods involving aldose reductase inhibitors” (The Board of Regents of The University of Texas System, priority 2007, dated 2015)

Legend:
NF-κB [1] = test: NF-κB-dependent SEAP reporter assay in TNF-α- or LPS-treated SAEC; format: cell-based, human
Description: SAEC cells (1×10^5 cells/well) were plated in 24-well plates, serum starved in basal medium with AR inhibitor, sorbinil and zopolrestate (20 μM) or carrier for 24 h, and transiently transfected with pNF-κB-secretory alkaline phosphatase (SEAP) construct or control plasmid pTALSEAP DNA (Clontech, Palo Alto, Calif.) using the LipofectAMINE Plus reagent. After 6 hours of transfection medium was replaced with fresh medium and cells were incubated with either TNF-α (2 nM) or LPS (1 μg/mL) or carrier for 48 h. The cell culture medium was then harvested and analyzed for SEAP activity, essentially as described by the manufacturer (Clontech, Palo Alto, Calif.), using a 96-well chemiluminescence plate reader.

NF-κB [2] = test: NF-κB-dependent SEAP reporter assay in RW-treated SAEC; format: cell-based, human
Description: The SAEC (1×10^5 cells/well) were plated in 24-well plates, serum-starved in SABM for 24 hours with or without AR inhibitors, sorbinil and zopolrestat (20 μM), and transiently transfected with pNF-κB-secretory alkaline phosphatase (SEAP) construct or control plasmid pTAL-SEAP DNA (Clontech, Palo Alto, Calif.) using the LipofectAMINE Plus reagent. After 6 hours of transfection, medium was replaced with fresh medium and cells were treated with RW (50 μg/mL) for 48 hours. The cell culture medium was harvested, centrifuged and supernatant was analyzed for SEAP activity, essentially as described by the manufacturer (Clontech, Palo Alto, Calif.), using a 96-well chemiluminescence plate reader.

[3] = test system: IL-6, IL-8 and Cox-2 mRNA; test: TNF-α- and LPS-induced IL-6, IL-8 and Cox-2 mRNA in SAEC (RT-PCR); format: cell-based, human; conditions: TNF-α 2 nM or LPS 1 μg/ml, 6 h
Description: The SAEC were grown in 6-well plates at a density of approximately 3.0×10^5 cells/well. After approximately 80% confluence cells were serum-starved in the presence or absence of sorbinil (20 μM) or carrier for 24 h and then stimulated with either TNF-α (2 nM) or LPS (1 μg/mL). Total RNA from SAEC was isolated by using RNeasy kit (Qiagen) as per supplier's instructions. Aliquots of RNA (0.5-1.0 μg) isolated from each sample were reverse transcribed with Omniscript and Sensiscript reverse transcriptase one-step RT-PCR system with HotStar Taq DNApolymerase (Qiagen) at 55° C. for 30 min followed by PCR amplification. The oligonucleotide primer sequences were as follows: 5′-[…]-3′ (SEQ ID NO:3) (sense) and 5′-[…]-3′ (SEQ ID NO:4) (antisense) for IL-6; 5′-[…]-3′ (SEQ ID NO:5) (sense) and 5′-TCT […]-3′ (SEQ ID NO:6) (antisense) for IL-8; 5′-TGAAACCCACTCCA AACACAG-3′ (SEQ ID NO:7) (sense) and 5′-[…]-3′ (SEQ ID NO:8) (antisense) for Cox-2; and 5′-[…]-3′ (SEQ ID NO:9) (sense) and 5′-CGTC […]-3′ (SEQ ID NO:10) (antisense) for β-actin. PCR was carried out in a PCR Sprint thermal cycler (Thermo electron corporation, Milford, Mass.) under the following conditions: initial denaturation at 95° C. for 15 min followed by 35 cycles of 94° C. 1 min, 62° C. 1 min, 72° C. 1 min, and then 72° C. 10 min for final extension. […]

[4] = test system: TNF-α, NO and PGE2 in aqueous humor; test: EIU: TNF-α, NO and PGE2 in aqueous humor (ELISA kits); format: in vivo, rat; conditions: 6 and 24 h after EIU-induction
Description: (§1) Six to eight-weeks-old male Lewis rats weighing approximately 150-160 g were used in this study (n=6). All animals were kept in the UTMB's Animal Care Center. All the animal studies were conducted in compliance with the ARVO statement for the use of Animals in Ophthalmic and Vision Research. EIU was induced by a subcutaneous injection of Escherichia coli LPS (200 μg) dissolved in phosphate-buffered saline (PBS, pH 7.4). Rats in ART and ETU+ARI groups were injected intraperitoneally with AR inhibitor zopolrestat (25 mg/kg body weight) dissolved in dimethyl-sulfoxide (DMSO) 24 h before and immediately after LPS injection. Rats of control group received carrier (PBS+20% DMSO) injection.
The levels of TNF-α in the AqH (stored at −80° C.) were assessed with commercially available ELISA kit, according to the manufacturer's instructions. The total level of nitrate plus nitrite in the AqH was measured by using a total nitrite colorimetric assay ([…]) kit according to the manufacturer's instructions. PGE2 production was measured by enzyme immunoassay kit following the manufacturer's instructions.

Lewis rats = test: Endotoxin-induced uveitis (EIU): infiltrating cells and total protein in aqueous humor, histopathology; format: in vivo, rat; conditions: zopolrestat alone, no LPS
Description: as §1
The rats were euthanized after 3, 6, and 24 h after LPS injection and the aqueous humor (AqH) was collected immediately from eye by an anterior chamber puncture using a 30-gauge needle under the surgical microscope. For cell counting, the AqH samples were suspended in an equal amount of Trypan-blue solution, and the cells were counted using a Hemocytometer under a light microscope (Olympus Optical Ltd). The total protein concentration in the AqH samples was measured using a Biorad protein assay kit (Biorad, CA, USA). The AqH samples were stored in ice water until testing, cell counts and total protein concentrations were measured on the day of sample collection. […]

Question: Which inhibition at 20 µM (NF-κB [1]; Homo sapiens, SAEC, AR inhibitor 20 μM, TNF-α 2 nM or LPS 1 μg/mL, 48 h, read-out: inhibition of TNF-α- and LPS-induced NF-κB-dependent SEAP activation) does the source give for `O=C(O)Cc1nn(Cc2nc3cc(C(F)(F)F)ccc3s2)c(=O)c2ccccc12` [zopolrestat] here?
Answer: > 60%

Question: And the “basal NF-κB-SEAP activity, compound alone” value (NF-κB [1]; no TNF-α or LPS)?
Answer: did not affect

Question: And the inhibition at 20 µM (NF-κB [2]; Homo sapiens, SAEC, AR inhibitor 20 μM, RW 50 μg/mL 48 hours, read-out: inhibition of RW-induced NF-κB-dependent SEAP activation)?
Answer: > 60%

Question: What about the “NF-κB-SEAP activity, compound alone” value (NF-κB [2]; no RW) of the same compound?
Answer: did not affect

Question: And the “prevention of TNF-α- and LPS-induced increase of Cox-2 mRNA levels” value [3]?
Answer: > 60%

Question: And the “reduction of TNF-α concentration in AqH” value [4]?
Answer: > 60%

Question: What about the “infiltration of cells, H&E sections, compound alone” value (Lewis rats) of the same compound?
Answer: No significant infiltration of cells
